Key:
[1] = biological target: T1, TM4SF5 (Homo sapiens, UniProt O14894); test: Streptavidin pulldown and Western blotting: binding between TM4SF5 and cell membrane receptors/signaling factors; assay type: cell-based; parameters: expressed in transfected cells; host or cells: SNU449 human hepatocellular carcinoma cells, stably transfected; conditions: 24 hours
T1 sequence (O14894 1-197): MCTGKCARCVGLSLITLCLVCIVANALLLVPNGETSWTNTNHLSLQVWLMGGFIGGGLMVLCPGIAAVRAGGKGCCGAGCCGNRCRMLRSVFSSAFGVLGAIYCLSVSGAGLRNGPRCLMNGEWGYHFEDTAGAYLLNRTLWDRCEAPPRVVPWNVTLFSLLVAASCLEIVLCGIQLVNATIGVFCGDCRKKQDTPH
Procedure: Cells were cultured to ~60% density in a cell incubator at 37°C and 5% CO2, and then transfected using PEI and cultured in a cell incubator at 37°C for two days. After cultivation, cell extracts were obtained by the method described above. After precipitating a desired protein from the cell extracts using an immunoprecipitation method, the binding proteins were identified by the Western blot technique described above. Specifically, cells cultured in a 100 mm cell culture dish for two days were washed twice with PBS, and protease inhibitor cocktails (GenDepot, USA) were added to 500 µl of immunoprecipitation lysis buffer (0.5% Triton X-100 or Brij 58, 40 mM HEPES, 150 mM NaCl, 1 mM EDTA, pH 7.4), followed by treatment at 4°C for 15 minutes. […] Proteins therein were quantified using a BCA reagent (Thermo Scientifics, USA). An electrophoresis sample was prepared by adding 4x laemmli sample buffer to a portion of the quantified sample and boiling at 100°C for 5 minutes. For immunoprecipitation, Streptavidin Agarose Resin (Thermo Fisher Scientific) or anti-HA antibody-coated Sepharose beads were added in proportion to the quantified protein amount, followed by rotation at 4°C for 4 hours, and then centrifugation was performed at 7,000x g at 4°C for 5 minutes and the supernatant was discarded. […]

[2] = biological target: T2, PD-L1 (Homo sapiens, UniProt Q9NZQ7); test: Cholesterol binding to PD-L1; conditions: summary statement, cholesterol binding to TM4SF5 and PD-L1
T2 construct: expressed in transfected cells; host or cells: Huh7 cells, transfected; captured on streptavidin agarose
T2 sequence (Q9NZQ7 19-290): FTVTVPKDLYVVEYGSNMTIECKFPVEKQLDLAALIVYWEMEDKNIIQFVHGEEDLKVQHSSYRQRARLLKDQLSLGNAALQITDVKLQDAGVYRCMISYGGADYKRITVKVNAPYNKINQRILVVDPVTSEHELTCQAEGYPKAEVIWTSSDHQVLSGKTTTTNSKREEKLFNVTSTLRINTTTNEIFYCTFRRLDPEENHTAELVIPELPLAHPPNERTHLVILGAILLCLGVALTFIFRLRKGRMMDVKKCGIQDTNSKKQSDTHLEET
Procedure: (a) Expression vectors for a control vector, TM4SF1, TM4SF5 WT, and R113Q, C118/145A, H127A, and N138A mutants of TM4SF5 were injected into the HEK293FT cell line, which was confirmed not to express TM4SF5, and allowed to express for 48 hours. (b) Huh7KO cell lines, in which TM4SF5 was knocked out in Huh7, were stably infected with a retrovirus encoding pBabe-EV or pBabe-TM4SF5-HA. […] (d) Strep-EV, Strep-PD-L1 WT, and 3NQ (N192/200/219Q) and 4NQ (N35/192/200/219Q) N-glycosylation mutants were injected into Huh7 cells to be expressed. (e) Strep-EV and Strep-TM4SF5 expression vectors were injected into Huh7KO cells and allowed to express for 48 hours. (a-e) After obtaining cell extracts, TM4SF5-strep, TM4SF5-HA, or PD-L1-strep was pulled down with streptavidin agarose resin or anti-HA antibody from extracts containing 0.2, 0.25, or 1.0 mg of protein for each experimental condition. […] Alternatively, they were treated with 1,2-^3H-Cholesterol (50 µM) alone or together with ST-3-001 (negative control compound), ST-5-001, or ST-5-002 (2.5 µM each) for 1 hour (c-e). For the experimental samples of each condition, radioactive isotope values were repeatedly measured using a TriCarb scintillation counter (PerkinElmer, Waltham, MA).

[3] = biological target: T1, TM4SF5; test: TM4SF5 expression-dependent cell line models (summary statement); assay type: cell-based; parameters: expressed in transfected cells; captured on streptavidin agarose
Description: In addition, the isoxazole compounds are capable of reversing both (i) an increase in PD-L1 expression and stabilization through direct binding mediated by TM4SF5 and (ii) induction of PD-1 expression in T cells, which suppresses T-cell activation and cancer cell killing functions.

Row | SMILES | binding of TM4SF5 to EGFR, CD44, and GLUT4 ([1]; 3 µM, SNU449 (FIG. 4)) | binding between TM4SF5 and EGFR, integrin α5, CD133, CD44, mTOR, IL-6R α, GLUT1, and GLUT4 ([1]; 5 µM, SNU449 (FIG. 6)) | binding of cholesterol to PD-L1 [2] | concentrations at which effects were exhibited [3] [µM]
1 | COc1ccc(-c2cc(-c3ccc(N)cc3)no2)cc1 [ST-1-025, 4-(5-(4-methoxyphenyl)isoxazole-3-yl)aniline] | slightly inhibited |  |  | 
2 | COc1ccc(-c2cc(-c3ccc(NC(C)=O)cc3)no2)cc1 [ST-2-001, N-(4-(5-(4-methoxyphenyl)isoxazole-3-yl)phenyl)acetamide] |  | inhibited |  | 
3 | CC(=O)Nc1ccc(-c2cc(-c3ccc(O)cc3)no2)cc1 [ST-5-001, N-(4-(3-(4-hydroxyphenyl)isoxazole-5-yl)phenyl)acetamide] |  |  | inhibit | ≤ 1
4 | Cc1ccc(C(=O)Nc2ccc(-c3cc(-c4ccc(O)cc4)no3)cc2)cc1 [ST-5-002, N-(4-(3-(4-hydroxyphenyl)isoxazole-5-yl)phenyl)-4-methylbenzamide] |  |  | inhibit | ≤ 1
